Patent US6130229A, “Tricyclic compounds having activity as RAS-FPT inhibitors” (Schering Corporation, priority 1997, dated 2000)

Molecular target: farnesyl protein transferase
Experiment: Inhibition of farnesyl protein transferase (test of WO 95/10514)
Assay type: biochemical
Conditions: percent inhibition relative to DMSO vehicle control, IC50 estimated
Source text: The compounds of the invention can be tested by standard methods, for example by those published in published PCT application WO 95/10514 published Apr. 20, 1995 (starting at page 61), the disclosure of which is hereby incorporated herein by reference. Particularly relevant assays and studies include In vitro enzyme assays, Cell-Based Assays, Cell Mat Assays, and In Vivo Anti-Tumor Studies.
Such Assays and Studies indicate that compounds of the Formula I above are selective inhibitors of Ras-FPT and can be used as anti-tumor agents. The following Table presents IC50 values obtained in the test for Inhibition of farnesyl protein transferase, reported in published PCT application WO 95/10514. Percent inhibition was calculated relative to the DMSO vehicle control, and an IC50 value was estimated.

Structure (SMILES) | IC50 [nM]
NC(=O)N1CCC(CC(=O)N2CCN(C3c4ccc(Cl)cc4[S+]([O-])Cc4cccnc43)CC2)CC1 (centres unmarked) [Example 32, 4-[2-[4-(8-Chloro-5,11-dihydro-[1]benzothiepino[4,3-b]pyridin-11-yl)-1-piperazinyl]-2-oxoethyl]-1-piperidinecarboxamide 6-oxide] | > 380
N#CNC(=NCc1ccncc1)N1CCN(C2c3ccc(Cl)cc3SCc3cccnc32)CC1 (centres unmarked) [Example 19, 4-(8-Chloro-5,11-dihydro[1]benzothiepino[4,3-b]pyridin-11-yl)-N-cyano-N'-(4-pyridinylmethyl)-1-piperazine-carboximidamide] | 61
O=C(Cc1cc[n+]([O-])cc1)N1CCN(C2c3ccc(Cl)cc3[S+]([O-])Cc3cccnc32)CC1 (centres unmarked) [Example 17A (sulfoxide), 4-(8-Chloro-5,11-dihydro-[1]benzothiepino[4,3-b]pyridin-11-yl)-1-(4-pyridine-acetyl)piperazine N1,6,-dioxide] | > 4000
O=C(Cc1cc[n+]([O-])cc1)N1CCC(=C2c3ccc(Cl)cc3SCc3cccnc32)CC1 [Example 9B, 4-(8-Chloro-5,11-dihydro-[1]benzothiepino[4,3-b]pyridin-11-ylidene)-1-(4-pyridine-acetyl)piperidine N1-oxide] | 520
O=C(Cc1ccncc1)N1CCN(C2c3ccc(Cl)cc3S(=O)(=O)Cc3cccnc32)CC1 (centres unmarked) [Example 16A, 4-(8-Chloro-5,11-dihydro-[1]benzothiepino[4,3-b]pyridin-11-yl)-1-(4-pyridine-acetyl)piperazine 6,6-dioxide] | 1000
O=C(Cc1cc[n+]([O-])cc1)N1CCN(C2c3ccc(Cl)cc3S(=O)(=O)Cc3cccnc32)CC1 (centres unmarked) [Example 17A (sulfone), 4-(8-Chloro-5,11-dihydro-[1]benzothiepino[4,3-b]pyridin-11-yl)-1-(4-pyridine-acetyl)piperazine N1,6,6-trioxide] | 3400
CN1CCC(CC(=O)N2CCC(=C3c4ccc(Cl)cc4SCc4cccnc43)CC2)CC1 [Example 26, 4-(8-Chloro-5,11-dihydro[1]benzothiepino[4,3-b]pyridin-11-ylidene)-1-(1-methyl-4-piperidine-acetyl)-piperidine] | 1790
N#CN=C(NCc1ccc2c(c1)OCO2)N1CCN(C2c3ccc(Cl)cc3SCc3cccnc32)CC1 (centres unmarked) [Example 20A, N-[(1,3-Benzodioxol-5-yl)methyl]-4-(8-chloro-5,11-dihydro[1]benzothiepino[4,3-b]pyridin-11-yl)-N'-cyano-1-piperazine-carboximidamide] | > 370
O=C(CC1CCNCC1)N1CCC(=C2c3ccc(Cl)cc3SCc3cccnc32)CC1 [Example 12B, 4-(8-Chloro-5,11-dihydro-[1]benzothiepino[4,3-b]pyridin-11-ylidene)-1-(4-pipeeridine-acetyl)piperidine] | 590
O=C(CC1CCNCC1)N1CCC(=C2c3ccc(Cl)cc3S(=O)(=O)Cc3cccnc32)CC1 [Example 28, 4-(8-Chloro-5,11-dihydro-[1]benzothiepino[4,3-b]pyridin-11-ylidene)-1-(4-piperidine-acetyl)piperidine-6,6-dioxide] | > 1200
O=C(Cc1cc[n+]([O-])cc1)N1CCC(=C2c3cc(Br)c(Cl)cc3OCc3cccnc32)CC1 [Example 7A, 4-(9-Bromo-8-chloro-5,11-dihydro[1]benzoxepino[4,3-b]pyridin-11-ylidene)-1-(4-pyridine-acetyl)piperidine N1-oxide] | > 400
